Counter-ions that a name gives are not always drawn.

For the compound `CC1(C)CC(c2ccccc2)Nc2c(C(=O)O)c(OCCO)nn21` (stereo not drawn) [Example 953, 2-(2-hydroxyethoxy)-7,7-dimethyl-5-phenyl-4,5,6,7-tetrahydropyrazolo[1,5-a]pyrimidine-3-carboxylic acid], the melting point (in general, the temperature of the solid-liquid transition) was in the range of 137 to 139 °C.

With `CCC(CC)(NC(=O)c1cnn2c1NC(c1ccccc1)CC2(C)C)c1ccc(-c2ccc(OC)nc2)cc1` (stereo not drawn) [Example 677, N-(1-ethyl-1-(4-(6-methoxy-3-pyridinyl)phenyl)propyl)-7,7-dimethyl-5-phenyl-4,5,6,7-tetrahydropyrazolo[1,5-a]pyrimidine-3-carboxamide], the melting point was 172 to 173 °C.

Regarding `CCC(CC)(NC(=O)c1cnn2c1NC(c1ccccc1)CC2(C)C)c1ccc(-c2cccnc2)cc1` (stereo not drawn) (as salt: HCl) [Example 583, N-(1-ethyl-1-(4-(3-pyridinyl)phenyl)propyl)-7,7-dimethyl-5-phenyl-4,5,6,7-tetrahydropyrazolo[1,5-a]pyrimidine-3-carboxamide], the melting point is 168 to 169 °C.

As to `CCC(CC)(NC(=O)c1c(C)nn2c1NC(c1ccccc1)CC2(C)C)c1ccc(C(C)O)cc1` (stereo not drawn) [Example 978, N-(1-ethyl-1-(4-(1-hydroxyethyl)phenyl)propyl)-2,7,7-trimethyl-5-phenyl-4,5,6,7-tetrahydropyrazolo[1,5-a]pyrimidine-3-carboxamide], the melting point is 165 to 166 °C.

The compound `CCC(CC)(NC(=O)c1c(C)nn2c1NC(c1ccccc1F)CC2(C)C)c1ccc(C)cc1` (stereo not drawn) [Example 962, N-[1-ethyl-1-(4-methylphenyl)propyl]-5-(2-fluorophenyl)-2,7,7-trimethyl-4,5,6,7-tetrahydropyrazolo[1,5-a]pyrimidine-3-carboxamide] displayed a melting point of 139 to 140 °C.

Regarding `O=C(NC1(C(=O)Nc2ccccc2)CCCCC1)c1cnn2c1N[C@H](c1ccccc1)C[C@@H]2C(F)(F)F` (stereo in doubt) [Example 371, N-(1-(anilinocarbonyl)cyclohexyl)-5-phenyl-7-(trifluoromethyl)-4,5,6,7-tetrahydropyrazolo[1,5-a]pyrimidine-3-carboxamide], the melting point was in the range of 262 to 263 °C.

Compound `CCC1(CC)C[C@H](OC)CN1C(=O)c1cnn2c1N[C@@H](c1ccccc1)CC2(C)C` [Example 1113, (5R)-3-(((4S)-2,2-diethyl-4-methoxy-1-pyrrolidinyl)carbonyl)-7,7-dimethyl-5-phenyl-4,5,6,7-tetrahydropyrazolo[1,5-a]pyrimidine] showed a melting point of 122 to 124 °C.

`CCC1(CC)C[C@@H](OCc2ccccc2)CN1C(=O)c1cnn2c1N[C@H](c1ccccc1)CC2(C)C` [Example 1105, (5S)-3-(((4R)-4-(benzyloxy)-2,2-diethyl-1-pyrrolidinyl)carbonyl)-7,7-dimethyl-5-phenyl-4,5,6,7-tetrahydropyrazolo[1,5-a]pyrimidine]: the melting point fell in the range of 172 to 174 °C.

`CCC(CC)(NC(=O)c1cnn2c1NC(c1ccccc1)CC2(C)C)c1ccc(C(=O)OC)cc1` (stereo not drawn) [Example 678, methyl 4-(1-(((7,7-dimethyl-5-phenyl-4,5,6,7-tetrahydropyrazolo[1,5-a]pyrimidin-3-yl)carbonyl)amino)-1-ethylpropyl)benzoate] displayed a melting point of 180 to 181 °C.

`CCC(CC)(NC(=O)c1cnn2c1NC(c1ccccc1)CC2(C)C)c1ccc(N(C)C)cc1` (stereo not drawn) [Example 778, N-(1-(4-(dimethylamino)phenyl)-1-ethylpropyl)-7,7-dimethyl-5-phenyl-4,5,6,7-tetrahydropyrazolo[1,5-a]pyrimidine-3-carboxamide] came in with a melting point of 128 to 129 °C.

With `Cc1ccc(C2CC(C)(C)n3nc(C)c(C(=O)O)c3N2)cc1` (stereo not drawn) [Example 949, 2,7,7-trimethyl-5-(4-methylphenyl)-4,5,6,7-tetrahydropyrazolo[1,5-a]pyrimidine-3-carboxylic acid], the melting point was 181 to 182 °C.

In turn, `CCC(CC)(NC(=O)c1c(C)nn2c1NC(c1ccccc1)CC2(C)C)c1ccc(Cl)cc1` (stereo not drawn) (as salt: HCl) [Example 723, N-(1-(4-chlorophenyl)-1-ethylpropyl)-2,7,7-trimethyl-5-phenyl-4,5,6,7-tetrahydropyrazolo[1,5-a]pyrimidine-3-carboxamide] registered a melting point of 180 to 181 °C.

In the case of `CCC1(CC)C[C@@H](O)CN1C(=O)c1cnn2c1N[C@@H](c1ccccc1)CC2(C)C` [Example 1115, (3R)-1-(((5R)-7,7-dimethyl-5-phenyl-4,5,6,7-tetrahydropyrazolo[1,5-a]pyrimidin-3-yl)carbonyl)-5,5-diethyl-3-pyrrolidinol], the melting point lay within 250 to 252 °C.

The compound `CCC(CC)(NC(=O)c1c(C)nn2c1N[C@@H](c1ccccc1)CC2(C)C)c1ccc(C(=O)O)cc1` [Example 1076, (5R)-4-(1-ethyl-1-(((-2,7,7-trimethyl-5-phenyl-4,5,6,7-tetrahydropyrazolo[1,5-a]pyrimidin-3-yl)carbonyl)amino)propyl) benzoic acid] registered a melting point of 234 to 236 °C.

Compound `CCOC(=O)c1cnn2c1NC(c1ccco1)CC2C(F)(F)F` (stereo not drawn) [Example 14, ethyl 5-(2-furyl)-7-(trifluoromethyl)-4,5,6,7-tetrahydropyrazolo[1,5-a]pyrimidine-3-carboxylate] gave a melting point of 86 °C.

Consider `CC(NC(=O)c1cnn2c1N[C@H](c1ccccc1)C[C@@H]2C(F)(F)F)C(=O)c1ccccc1` (stereo in doubt) [Example 291, N-(1-methyl-2-oxo-2-phenylethyl)-5-phenyl-7-(trifluoromethyl)-4,5,6,7-tetrahydropyrazolo[1,5-a]pyrimidine-3-carboxamide], for which the melting point lay within 178 to 179 °C.

`COc1cccc(C2CC(C)(C)n3nc(C)c(C(=O)O)c3N2)c1` (stereo not drawn) [Example 947, 5-(3-methoxyphenyl)-2,7,7-trimethyl-4,5,6,7-tetrahydropyrazolo[1,5-a]pyrimidine-3-carboxylic acid] showed a melting point of 151 to 152 °C.

The compound `CCC(=O)Oc1ccc(C(CC)(CC)NC(=O)c2cnn3c2NC(c2ccccc2)CC3(C)C)cc1` (stereo not drawn) [Example 729, 4-(1-(((7,7-dimethyl-5-phenyl-4,5,6,7-tetrahydropyrazolo[1,5-a]pyrimidin-3-yl)carbonyl)amino)-1-ethylpropyl)phenyl propionate] registered a melting point of 172 to 173 °C.

In turn, `CCC(CC)(Cc1ccc(C)cc1)NC(=O)c1cnn2c1NC(c1ccccc1)CC2(C)C` (stereo not drawn) [Example 703, N-(1-ethyl-1-(4-methylbenzyl)propyl)-7,7-dimethyl-5-phenyl-4,5,6,7-tetrahydropyrazolo[1,5-a]pyrimidine-3-carboxamide] displayed a melting point of 150 to 151 °C.

`CCC(CC)(c1ccc(C)cc1)c1nnc(-c2c(C)nn3c2N[C@@H](c2ccccc2)CC3(C)C)s1` [Example 1143, (5R)-3-(5-(1-ethyl-1-(4-methylphenyl)propyl)-1,3,4-thiadiazol-2-yl)-2,7,7-trimethyl-5-phenyl-4,5,6,7-tetrahydropyrazolo[1,5-a]pyrimidine] came in with a melting point of 132 to 134 °C.

As to `CCC1(CC)CC(c2ccccc2)Nc2c(C(=O)NC34CC5CC(CC(C5)C3)C4)cnn21` (stereo not drawn), the melting point was 213 to 214 °C.

As for `CCC(CC)(NC(=O)c1cnn2c1NC(c1ccccc1)CC2(C)C)c1ccc(OCCCC(=O)O)cc1` (stereo not drawn) [Example 771, 4-(4-(1-(((7,7-dimethyl-5-phenyl-4,5,6,7-tetrahydropyrazolo[1,5-a]pyrimidin-3-yl)carbonyl)amino)-1-ethyl-propyl)phenoxy)butanoic acid], the melting point fell in the range of 170 to 171 °C.

`CCC1(NC(=O)c2cnn3c2NC(c2ccccc2)CC3(C)C)CCCCCC1` (stereo not drawn) [Example 622, N-(1-ethylcycloheptyl)-7,7-dimethyl-5-phenyl-4,5,6,7-tetrahydropyrazolo[1,5-a]pyrimidine-3-carboxamide] returned a melting point of 129 to 130 °C.

In the case of `COc1ccc(C(NC(=O)c2cnn3c2NC(c2ccccc2)CC3(C)C)c2ccc(OC)cc2)cc1` (stereo not drawn) [Example 407, N-(bis(4-methoxyphenyl)methyl)-7,7-dimethyl-5-phenyl-4,5,6,7-tetrahydropyrazolo[1,5-a]pyrimidine-3-carboxamide], the melting point fell in the range of 184 to 185 °C.

`CCC(CC)(NC(=O)c1cnn2c1NC(c1ccccc1OC)CC2(C)C)c1ccc(C(F)(F)F)cc1` (stereo not drawn) [Example 590, N-(1-ethyl-1-(4-(trifluoromethyl)phenyl)propyl)-5-(2-methoxyphenyl)-7,7-dimethyl-4,5,6,7-tetrahydropyrazolo[1,5-a]pyrimidine-3-carboxamide] came in with a melting point of 211 to 213 °C.

For `CC(C)[C@H]1CC[C@H](C)CC1OC(=O)c1cnn2c1NC(c1ccccc1)CC2(C)C` (stereo partly drawn) [Example 1140, (2R,5S)-2-isopropyl-5-methylcyclohexyl 7,7-dimethyl-5-phenyl-4,5,6,7-tetrahydropyrazolo[1,5-a]pyrimidine-3-carboxylate], the melting point was 123 to 124 °C.

With `Cc1ccc(C2CC(C)(C)n3ncc(C(=O)O)c3N2)c(C)c1` (stereo not drawn) [Example 952, 5-(2,4-dimethylphenyl)-7,7-dimethyl-4,5,6,7-tetrahydropyrazolo[1,5-a]pyrimidine-3-carboxylic acid], the melting point is 155 to 157 °C.

Compound `CCCCOC(=O)c1ccc(C(CC)(CC)NC(=O)c2cnn3c2NC(c2ccccc2)CC3(C)C)cc1` (stereo not drawn) [Example 757, butyl 4-(1-(((7,7-dimethyl-5-phenyl-4,5,6,7-tetrahydropyrazolo[1,5-a]pyrimidin-3-yl)carbonyl)amino)-1-ethylpropyl)benzoate] returned a melting point of 139 to 140 °C.

For `O=C(NC1(C(=O)O)CCCCC1)c1cnn2c1N[C@H](c1ccccc1)C[C@@H]2C(F)(F)F` (stereo in doubt) [Example 369, 1-(((5-phenyl-7-(trifluoromethyl)-4,5,6,7-tetrahydropyrazolo[1,5-a]pyrimidin-3-yl)carbonyl)amino)cyclohexane carboxylic acid], the melting point fell in the range of 236 to 237 °C.

`CCC(CC)(NC(=O)c1c(C)nn2c1NC(c1ccccc1)CC2(C)C)c1ccc(C(=O)O)cc1` (stereo not drawn) [Example 979, 4-(1-ethyl-1-(((2,7,7-trimethyl-5-phenyl-4,5,6,7-tetrahydropyrazolo[1,5-a]pyrimidin-3-yl)carbonyl)amino)propyl) benzoic acid] yielded a melting point of 244 to 246 °C.
